The nature of data set [1]: Metabolic stability in human liver microsomes. It counts as in vitro ADME.
The next data set is described as follows: Oral exposure in mice. It counts as in vivo, mouse. To be noted: single oral dose 50 mg/kg, suspension in PEG400, after ∼5 h.
Data set [2] is described as follows: Blood and plasma stability. It counts as in vitro ADME. The note with it: rat blood and plasma, over 4 h at 37 °C.
Data set [3] in a line: Tolerability observed in rat PK studies. It counts as in vivo. To be noted: rats; for hemolysis: dosed iv, most likely arising from the vehicle; for signs of toxicity: orally or ip at doses up to ∼20 mg/kg.
A short description of a further data set: Chemical stability. It counts as physicochemical.
The conditions of data set [4]: rat dosed intravenously.
Another data set is described as follows: in vivo. To be noted: male, Sprague Dawley, rat, plasma.
Data set [5] is described as follows: Metabolic stability in mouse liver microsomes. It counts as in vitro ADME. To be noted: for metabolic stability (in words): incubated with mouse liver microsomes.
Data set [6] in a line: Metabolic stability in rat liver microsomes. It counts as in vitro ADME.

Bounds are passed on as bounds.

`CCOC(=O)C1=C(C)N/C(=C/c2cc(C)n(-c3ccccc3C(F)(F)F)c2C)C1=O` [Compound 8a, Ethyl (5E)-5-[[2,5-dimethyl-1-[2-(trifluoromethyl)phenyl]pyrrol-3-yl]methylene]-2-methyl-4-oxo-1H-pyrrole-3-carboxylate]: in [1], the metabolites detected result was “none”. Besides, the plasma levels in the data set “Oral exposure in mice” is less than 10 nM. Moreover, the “hydrolyzed to the acid 10c” value in data set [2] is given as approximately 25%. Besides, in data set [3], the hemolysis result is “slight degree of hemolysis” and the signs of toxicity result is “No sign of toxicity”. Further, in the data set “Chemical stability”, the “chemical stability (in words)” value is “fairly resistant to chemical hydrolysis”. Also, the “glutathione conjugation adducts in urine” value in [4] is on record as “no adducts resulting from conjugation with glutathione were detected”. The compound further yielded a half-life in the data set “in vivo” not below 8 h.

Regarding `CCOC(=O)C1=C(C)N/C(=C/c2cc(C)n(-c3ccc(CN(C)C)cc3)c2C)C1=O` [Compound 8aa], in [5], the “metabolic stability (in words)” value is given as “slightly more stable”.

`CCOC(=O)C1=C(C)N/C(=C/c2cc(C)n(-c3ccc(C(F)(F)F)cc3)c2C)C1=O` [Compound 8b, Ethyl (5E)-5-[[2,5-Dimethyl-1-[4-(trifluoromethyl)phenyl]pyrrol-3-yl]methylene]-2-methyl-4-oxo-1H-pyrrole-3-carboxylate]: the metabolites detected result in data set [5] (mouse liver microsomes (Table 6)) was “none”. Moreover, in [1], the half-life at 1 μM is 0.583 h and the metabolites detected result is reported as “none”. Besides, the metabolites detected entry in data set [6] was “none”. Further, in [3], the hemolysis result is on record as “slight degree of hemolysis” and the signs of toxicity entry is given as “No sign of toxicity”. The compound further gave a half-life in “in vivo” not below 8 h.

Turning to `CCOC(=O)C1=C(C)N/C(=C/c2cc(C)n(-c3ccc(N4CCOCC4)cc3)c2C)C1=O` [Compound 8u], the “metabolic stability (in words)” value in data set [5] was “slightly more stable”.

On to `CCOC(=O)C1=C(C)N/C(=C/c2ccn(-c3ccccc3C(F)(F)F)c2)C1=O` [Compound 9a], for which the “metabolic stability (in words)” value in [5] is listed as “even lower metabolic stability”.

As for `CCOC(=O)C1=C(C)N/C(=C/c2ccn(-c3ccc(C(F)(F)F)cc3)c2)C1=O` [Compound 9b], in data set [5], the “metabolic stability (in words)” value is on record as “even lower metabolic stability”.

As for `CCOC(=O)C1=C(C)N/C(=C/c2cc(CC)n(-c3ccccc3C(F)(F)F)c2CC)C1=O` [Compound 9c, Ethyl (5E)-5-[[2,5-Diethyl-1-[2-(trifluoromethyl)phenyl]pyrrol-3-yl]methylene]-2-methyl-4-oxo-1H-pyrrole-3-carboxylate], the “metabolic stability (in words)” value in [5] is “even lower metabolic stability”.

For the compound `CC1=CC(=O)/C(=C\c2cc(C)n(-c3ccccc3C(F)(F)F)c2C)N1` [Compound 10d], in data set [5], the “metabolic stability (in words)” value is given as “slightly more stable”.

Regarding `CCOC(=O)C1=C(C)NC(Cc2cc(C)n(-c3ccccc3C(F)(F)F)c2C)C1=O` (stereo not shown) [Compound 11b], the “chemical stability (in words)” value in “Chemical stability” is “less stable chemically”.
